Source: patent US9752236B2, “Corrosion inhibitors” (Rhodia Operations, priority 2010, dated 2017)

What was measured:
[1] = Static acid immersion test in 5% w/w H2SO4; conditions: 5% w/w H2SO4, 50° C., 24 hours, 2000 ppm w/w active inhibitor
Description: (§1) Static acid immersion tests were used to compare the corrosion inhibition performance of various sulfosuccinates in 5% w/w HCl to the industry standard propargyl alcohol (2-propyn-1-ol) and the corrosion inhibitor Stannine® ETH, which is a blend of amine salts and aliphatic alcohols and is available from Rhodia Novecare.
(§2) • A control solution of 5% w/w HCl was prepared by diluting 37% w/w HCl with deionised water. • An inhibited solution of 5% w/w HCl & 2000 ppm w/w active corrosion inhibitor was then prepared for each of the corrosion inhibitors being evaluated. Stannine® ETH was used at 2000 ppm w/w solids as the active content of Stannine® ETH is unknown. • Each solution was then split evenly between 2 Schott bottles (for duplicate runs) and a pre-weighed C1018 mild steel coupon was placed in each so that it was completely submerged. • The Schott bottles were then sealed tightly and stored for 24 hours in an oven set at 50° C. • After the allotted time the coupons were removed from the oven and cleaned using deionised water, HCl cleaning solution and acetone. The HCl cleaning solution had been made by dissolving 5 g SnCl2 and 2 g SbCl3 in 100 ml of 37% w/w HCl. • The coupons were then oven dried before re-weighing with the average weight change of the duplicate coupons being used to calculate the corrosion rate. The above process was then repeated using (a) 5% w/w H2SO4 and (b) 5% w/w acetic acid instead of HCl.

[2] = Linear Polarisation Resistance (LPR) bubble test, corrosion inhibition under oilfield conditions; conditions: 20 ppm actives; 5% NaCl brine/Isopar M 9:1; 60° C.; constant CO2; 15 hours
Description: [formula] where baseline corrosion was calculated by taking the average corrosion rate of each cell before the corrosion inhibitors were introduced.
The same tests as described in Example 1 were carried out on the products set out in Table 3 below.

[3] = Static acid immersion test in 5% w/w HCl; conditions: 50° C., 24 hours, 2000 ppm w/w active inhibitor
Description: as §1, §2

[4] = Static acid immersion test in 5% w/w acetic acid; conditions: 50° C., 24 hours, 2000 ppm w/w active inhibitor
Description: as §1, §2

Compound	% Efficiency [1]	Corrosion rate [1]	corrosion rate (LPR), in words [2]	% Efficiency [3]	Corrosion rate [3]	% Efficiency [4]	Corrosion rate [4]	% Efficiency ([1]; listed as propargyl alcohol)
CCCCCCCC/C=C\CCCCCCCC(=O)NCCOC(=O)C(CC(=O)[O-])S(=O)(=O)[O-].[Na+].[Na+] (stereo not shown) [Disodium oleamido MEA sulfosuccinate]	65.2%	669.3 mils/y	significantly reduce corrosion rates, although they do not perform quite as well as the industry standard	88.0%	171.5 mils/y	56.7%	60.7 mils/y	
C#CCO [Propargyl alcohol, 2-propyn-1-ol, reference compound]	18.0%	1575.2 mils/y			9.5 mils/y			not performing well as an inhibitor in this environment
Disodium cocamido MIPA sulfosuccinate			significantly reduce the corrosion rate and have a performance very similar to the industry standard					
Disodium laureth sulfosuccinate			significantly reduce the corrosion rate and have a performance very similar to the industry standard					
Disodium oleamido MIPA sulfosuccinate	68.4%	607.0 mils/y	significantly reduce the corrosion rate and have a performance very similar to the industry standard	88.5%	163.3 mils/y	70.9%	40.9 mils/y	
Disodium oleth 9 sulfosuccinate			significantly reduce corrosion rates, although they do not perform quite as well as the industry standard					
Disodium ricinoleamido MEA sulfosuccinate	81.1%	362.5 mils/y	significantly reduce the corrosion rate and have a performance very similar to the industry standard	84.4%	221.4 mils/y	77.2%	32.0 mils/y	
